# Measurements published in patent publication US20260132127A1, “NOVEL SPIRO COMPOUND” (MITSUBISHI TANABE PHARMA CORPORATION, priority 2021, published 2026).
# Biological target: T1, human TRH-DE (Homo sapiens, UniProt Q9UKU6)
# T1 construct: expressed in transfected cells; host or cells: Expi 293 cells (transient expression), membrane fraction
# T1 sequence (Q9UKU6 1-1069): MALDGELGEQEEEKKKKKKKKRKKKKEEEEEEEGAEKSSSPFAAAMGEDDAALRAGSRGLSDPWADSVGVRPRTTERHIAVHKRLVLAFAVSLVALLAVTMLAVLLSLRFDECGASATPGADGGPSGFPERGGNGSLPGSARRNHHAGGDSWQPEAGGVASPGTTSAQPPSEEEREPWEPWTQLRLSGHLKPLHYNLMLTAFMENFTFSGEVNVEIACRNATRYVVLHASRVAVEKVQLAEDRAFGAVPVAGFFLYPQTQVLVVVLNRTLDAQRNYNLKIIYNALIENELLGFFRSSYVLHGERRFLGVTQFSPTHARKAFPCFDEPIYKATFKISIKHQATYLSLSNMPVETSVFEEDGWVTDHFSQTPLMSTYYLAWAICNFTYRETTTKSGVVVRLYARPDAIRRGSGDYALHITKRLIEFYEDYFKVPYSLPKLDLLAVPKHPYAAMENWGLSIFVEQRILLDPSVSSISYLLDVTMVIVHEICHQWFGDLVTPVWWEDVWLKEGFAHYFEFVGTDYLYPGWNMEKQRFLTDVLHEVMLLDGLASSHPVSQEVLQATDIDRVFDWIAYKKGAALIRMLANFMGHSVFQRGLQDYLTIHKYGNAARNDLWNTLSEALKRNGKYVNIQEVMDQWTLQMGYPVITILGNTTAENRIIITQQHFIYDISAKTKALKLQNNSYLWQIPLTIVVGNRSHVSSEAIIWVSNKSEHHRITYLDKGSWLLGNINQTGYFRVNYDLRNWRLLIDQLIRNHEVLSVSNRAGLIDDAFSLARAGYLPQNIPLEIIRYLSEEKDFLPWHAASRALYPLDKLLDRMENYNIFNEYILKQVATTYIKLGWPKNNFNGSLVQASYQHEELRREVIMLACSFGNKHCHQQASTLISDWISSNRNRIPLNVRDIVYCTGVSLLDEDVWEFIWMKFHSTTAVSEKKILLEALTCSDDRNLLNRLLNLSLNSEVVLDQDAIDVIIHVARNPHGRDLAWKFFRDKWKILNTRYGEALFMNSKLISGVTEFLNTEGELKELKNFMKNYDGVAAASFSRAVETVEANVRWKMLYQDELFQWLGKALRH
# Test: TRH-DE inhibition test (RapidFire MS measurement of product Cyclo (His-Pro))
# Format: biochemical
# Details: membrane fraction of Expi 293 cells expressing human TRH-DE; 10 μM TRH substrate; room temperature, 2 hours; 16-point concentration test
# Method: The compounds described in “1. […] The enzyme inhibitory activity of each of the compounds was evaluated by measuring the amount of the product Cyclo (His-Pro) of the enzyme reaction using a RapidFire RF 365 HTMS system (manufactured by Agilent Technologies, Inc.) connected to a triple quadrupole mass spectrometer (API 4000, manufactured by SCIEX). A membrane fraction prepared from Expi 293 cells transiently expressing human TRH-DE was used as an enzyme. The membrane fraction was suspended in 4 μg/ml of a reaction buffer (50 mM sodium phosphate (pH 7.4), 25 mM NaCl, 0.01% Triton […], and 200 μM bacitracin) and mixed with the test compound at each concentration. 10 μM […]), which was a substrate, was added, and the mixture was reacted at room temperature for 2 hours. The reaction was stopped in the same amount of a solution of acetonitrile:methanol (1:1) containing 1 μM of the stable isotope Cyclo ([…]) as an internal standard, and the supernatant was collected after centrifugation. In the RapidFire RF 365 HTMS system, a portion of the supernatant was aspirated, loaded onto a Graphic Carbon column (manufactured by Agilent Technologies, Inc.) with a buffer A (water, 0.09% formic acid, 0.01% trifluoroacetic acid) and washed with ultrapure water. Next, washing was performed with acetonitrile. The contents in the column were eluted with a buffer B (80% acetonitrile, 0.09% formic acid, 0.01% trifluoroacetic acid) and injected into a mass spectrometer for analysis. […] The ESI voltage was set to 5,500 V and the temperature was set to 650° C. For the calculation of the inhibition rate, a Ratio value corrected by dividing the product amount by the internal standard amount was used. The inhibition rate (%) was calculated by % Inhibition={1-(Ratio value of sample-Ratio value of blank)/(Ratio value of control-Ratio value of blank)}×100. The IC50 value was calculated from the concentration reactivity test at 16 points.
row,IC50 [nM],SMILES
1,49,CC1CCc2ncccc2C(=O)N1C1CC2(C1)CN(S(=O)(=O)c1ccccc1F)C2 (racemic) [Example 87]
2,147,CC1CCc2ncc(F)cc2C(=O)N1C1CC2(C1)CN(S(=O)(=O)c1ccccc1F)C2 (racemic) [Example 88]
3,286,CC1CCc2ncc(C(F)(F)F)cc2C(=O)N1C1CC2(C1)CN(S(=O)(=O)c1ccccc1F)C2 (racemic) [Example 89]
4,12,CC1CCc2nc(C(F)(F)F)sc2C(=O)N1C1CC2(C1)CN(S(=O)(=O)c1ccccc1F)C2 (racemic) [Example 92]
5,4,CC1CCc2nc(C3CC3)sc2C(=O)N1C1CC2(C1)CN(S(=O)(=O)c1ccccc1F)C2 (racemic) [Example 93]
6,4,CC1CCc2nc(C3(F)CC3)sc2C(=O)N1C1CC2(C1)CN(S(=O)(=O)c1ccccc1F)C2 (racemic) [Example 94]
7,21,CC1CCc2sc(C(F)(F)F)nc2C(=O)N1C1CC2(C1)CN(S(=O)(=O)c1ccccc1F)C2 (racemic) [Example 98]
8,6,CC1CCc2nc(C3CC3)oc2C(=O)N1C1CC2(C1)CN(S(=O)(=O)c1ccccc1F)C2 (racemic) [Example 102]
9,14,CC1c2cc(C(F)(F)F)cnc2C(=O)N(C2CC3(C2)CN(S(=O)(=O)c2ccccc2F)C3)C1C (racemic) [Example 106]
10,18,CC1CCC2CC2C(=O)N1C1CC2(C1)CN(S(=O)(=O)c1ccccc1F)C2 (racemic) [Example 107]
11,32,CC1C=Cc2cc(C(F)(F)F)cnc2C(=O)N1C1CC2(C1)CN(S(=O)(=O)c1ccccc1F)C2 (racemic) [Example 112]
12,26,CC1C=Cc2ncccc2C(=O)N1C1CC2(C1)CN(S(=O)(=O)c1ccccc1F)C2 (racemic) [Example 113]
13,61,CC1C=Cc2ncc(F)cc2C(=O)N1C1CC2(C1)CN(S(=O)(=O)c1ccccc1F)C2 (racemic) [Example 114]
14,83,CC1C=Cc2ncc(C(F)(F)F)cc2C(=O)N1C1CC2(C1)CN(S(=O)(=O)c1ccccc1F)C2 (racemic) [Example 115]
15,25,CC1C=Cc2nc(C(F)(F)F)sc2C(=O)N1C1CC2(C1)CN(S(=O)(=O)c1ccccc1F)C2 (racemic) [Example 118]
16,13,CC1C=Cc2nc(C3CC3)sc2C(=O)N1C1CC2(C1)CN(S(=O)(=O)c1ccccc1F)C2 (racemic) [Example 119]
17,11,CC1C=Cc2nc(C3(F)CC3)sc2C(=O)N1C1CC2(C1)CN(S(=O)(=O)c1ccccc1F)C2 (racemic) [Example 120]
18,21,CC1C=Cc2nc(C3CC3)oc2C(=O)N1C1CC2(C1)CN(S(=O)(=O)c1ccccc1F)C2 (racemic) [Example 129]
19,32,CC1C=Cc2c(noc2C2CC2)C(=O)N1C1CC2(C1)CN(S(=O)(=O)c1ccccc1F)C2 (racemic) [Example 131]
20,19,Cc1nc2c(s1)C(=O)N(C1CC3(C1)CN(S(=O)(=O)c1ccccc1F)C3)C(C)CO2 (racemic) [Example 174]
21,18,CCc1nc2c(s1)C(=O)N(C1CC3(C1)CN(S(=O)(=O)c1ccccc1F)C3)C(C)CO2 (racemic) [Example 177]
22,7,CC1COc2nc(C3CC3)sc2C(=O)N1C1CC2(C1)CN(S(=O)(=O)c1ccccc1F)C2 (racemic) [Example 179]
23,112,"COc1ccc2c(n1)CCC(C)N(C1CC3(C1)CN(S(=O)(=O)c1ccccc1F)C3)C2=O (racemic) [Example 249, 6-[2-(2-fluorophenyl)sulfonyl-2-azaspiro[3.3]heptan-6-yl]-2-methoxy-7-methyl-8,9-dihydro-7H-pyrido[3,2-c]azepin-5-one]"

row,IC50 [nM],SMILES
1,152,"CC1CSc2nc(C(F)(F)F)ccc2C(=O)N1C1CC2(C1)CN(S(=O)(=O)c1ccccc1F)C2 (racemic) [Example 259, 4-[2-(2-fluorophenyl)sulfonyl-2-azaspiro[3.3]heptan-6-yl]-3-methyl-8-(trifluoromethyl)-2,3-dihydropyrido[3,2-f][1,4]thiazepin-5-one]"
2,664,CC1c2ccccc2C(=O)N1C1CC2(C1)CN(S(=O)(=O)c1ccccc1)C2 (racemic) [Example 267]
3,108,CCC1c2ccccc2C(=O)N1C1CC2(C1)CN(S(=O)(=O)c1ccccc1)C2 (racemic) [Example 268]
4,134,CC1c2cc(F)ccc2C(=O)N1C1CC2(C1)CN(S(=O)(=O)c1ccccc1F)C2 (racemic) [Example 269]
5,189,CC1c2ccc(F)cc2C(=O)N1C1CC2(C1)CN(S(=O)(=O)c1ccccc1F)C2 (racemic) [Example 270]
6,24,CCC1c2ccccc2C(=O)N1C1CC2(C1)CN(S(=O)(=O)c1ccccc1F)C2 (racemic) [Example 271]
7,101,Cc1ccc(F)c(S(=O)(=O)N2CC3(CC(N4C(=O)c5ccccc5C4C)C3)C2)c1 (racemic) [Example 272]
8,63,CCC1c2ccccc2C(=O)N1C1CC2(C1)CN(S(=O)(=O)c1cc(C)ccc1F)C2 (racemic) [Example 273]
9,151,CCC1c2ccccc2C(=O)N1C1CC2(C1)CN(S(=O)(=O)c1cc(OC)ccc1F)C2 (racemic) [Example 274]
10,74,CC1(O)c2cc(F)ccc2C(=O)N1C1CC2(C1)CN(S(=O)(=O)c1ccccc1F)C2 (racemic) [Example 276]
11,102,CC1(O)c2ccc(F)cc2C(=O)N1C1CC2(C1)CN(S(=O)(=O)c1ccccc1F)C2 (racemic) [Example 277]
12,146,CC1(O)c2cccnc2C(=O)N1C1CC2(C1)CN(S(=O)(=O)c1ccccc1F)C2 (racemic) [Example 278]
13,112,CC1(O)c2cc(F)cnc2C(=O)N1C1CC2(C1)CN(S(=O)(=O)c1ccccc1F)C2 (racemic) [Example 279]
14,89,Cc1cnc2c(c1)C(C)(O)N(C1CC3(C1)CN(S(=O)(=O)c1ccccc1F)C3)C2=O (racemic) [Example 280]
15,120,COc1ccc2c(n1)C(=O)N(C1CC3(C1)CN(S(=O)(=O)c1ccccc1F)C3)C2(C)O (racemic) [Example 281]
16,124,CC1(O)c2cnccc2C(=O)N1C1CC2(C1)CN(S(=O)(=O)c1ccccc1F)C2 (racemic) [Example 282]
17,537,CC1(O)c2ccccc2C(=O)N1C1CC2(C1)CN(S(=O)(=O)c1ccccc1)C2 (racemic) [Example 284]
18,955,CCC1(O)c2ccccc2C(=O)N1C1CC2(C1)CN(S(=O)(=O)c1ccccc1)C2 (racemic) [Example 285]
19,213,CCC1(O)c2ccccc2C(=O)N1C1CC2(C1)CN(S(=O)(=O)c1ccccc1F)C2 (racemic) [Example 286]
20,90,Cc1ccc(F)c(S(=O)(=O)N2CC3(CC(N4C(=O)c5ccccc5C4(C)O)C3)C2)c1 (racemic) [Example 287]
21,336,CCC1(O)c2ccccc2C(=O)N1C1CC2(C1)CN(S(=O)(=O)c1cc(C)ccc1F)C2 (racemic) [Example 288]
22,338,CCC1(O)c2ccccc2C(=O)N1C1CC2(C1)CN(S(=O)(=O)c1cc(OC)ccc1F)C2 (racemic) [Example 289]
23,215,CC1c2cccnc2C(=O)N1C1CC2(C1)CN(S(=O)(=O)c1ccccc1F)C2 (racemic) [Example 291]
